Reference: patent US8338450B2, “Compounds as dipeptidyl peptidase IV (DPP IV) inhibitors” (Lupin Limited, priority 2007, dated 2012)
Structures can show the parent of a compound that is named as a salt. Where two headings read alike, the source gives them in different places.

Biological target: T1, human recombinant DPP-IV (Homo sapiens, UniProt P27487)
T1 construct: purchased R&D Systems, USA (or produced in-house)
Experiment: Inhibition of human recombinant DPP-IV (Gly-Pro-AMC hydrolysis, fluorometric)
Type: biochemical
Conditions: for IC50: human recombinant DPP-IV, 50 μM Gly-Pro-AMC, 30 min at 30° C.; for inhibition at 1 µM: read-out: % inhibition at 1000 nM; for % inhibition at 10 nM: compound 10 nM; for % inhibition at 100 nM: compound 100 nM
Method: Inhibition of Human Recombinant DPP-IV
The proteolytic activity of human recombinant DPP-IV was determined by following the hydrolysis of Gly-Pro-7-amino-4-methylcoumarin (Gly-Pro-AMC) and the fluorometric quantitation of the liberated AMC. Assays were routinely carried out in 96-well flat-bottom black microwell plates. The reaction mixture (100 μl) contained 10 ng of human recombinant DPP-IV enzyme (produced in-house or procured from R&D Systems, USA) in the assay buffer (25 mM Tris-HCl, pH 7.4, 140 mM NaCl, 10 mM KCl and 0.1 mg/ml BSA) and 50 μM Gly-Pro-AMC. After incubation of assay plates at 30° C. for 30 min, the hydrolysis of Gly-Pro-AMC was monitored in a fluorescence microplate reader (Molecular Devices SpectraMax M5), with excitation and emission wavelengths set at 360 nm and 460 nm, respectively.
The inhibition of DPP-IV activity by test compounds was routinely performed by preincubating the enzyme with test compound (10 and 100 nM for primary screening and 8 concentrations from 0.1 to 1000 nM for the dose-response study) or vehicle (0.01% DMSO) for 15 min at 30° C., in a total volume of 90 μl. Test compounds were dissolved in DMSO at a concentration of 10 mM and serially diluted further in assay buffer. The enzyme reaction was initiated by the addition of Gly-Pro-AMC, followed by incubation of assay plates for 30 min at 30° C. and the liberated AMC was measured as described above. A known inhibitor of DPP-IV (positive control) was always included in the assay. Test compounds at various concentrations were always evaluated in duplicate, along with substrate blanks, vehicle controls and positive controls.
The results are expressed as percent inhibition of the enzyme activity relative to vehicle controls. Dose-response studies were conducted for those compounds exerting ≧50% inhibition of activity at 10 nM in primary screening. IC50, defined as the inhibitor concentration which caused a 50% decrease of the activity under assay conditions, was computed using GraphPad Prism software, version 5.0.
The DPP-IV inhibition data (expressed either as IC50 in nanomolar or percent inhibition at a particular compound concentration) is presented in Table 1.

[1] = compound 1000 nM, relative to vehicle controls

T1 sequence (P27487 whole entry): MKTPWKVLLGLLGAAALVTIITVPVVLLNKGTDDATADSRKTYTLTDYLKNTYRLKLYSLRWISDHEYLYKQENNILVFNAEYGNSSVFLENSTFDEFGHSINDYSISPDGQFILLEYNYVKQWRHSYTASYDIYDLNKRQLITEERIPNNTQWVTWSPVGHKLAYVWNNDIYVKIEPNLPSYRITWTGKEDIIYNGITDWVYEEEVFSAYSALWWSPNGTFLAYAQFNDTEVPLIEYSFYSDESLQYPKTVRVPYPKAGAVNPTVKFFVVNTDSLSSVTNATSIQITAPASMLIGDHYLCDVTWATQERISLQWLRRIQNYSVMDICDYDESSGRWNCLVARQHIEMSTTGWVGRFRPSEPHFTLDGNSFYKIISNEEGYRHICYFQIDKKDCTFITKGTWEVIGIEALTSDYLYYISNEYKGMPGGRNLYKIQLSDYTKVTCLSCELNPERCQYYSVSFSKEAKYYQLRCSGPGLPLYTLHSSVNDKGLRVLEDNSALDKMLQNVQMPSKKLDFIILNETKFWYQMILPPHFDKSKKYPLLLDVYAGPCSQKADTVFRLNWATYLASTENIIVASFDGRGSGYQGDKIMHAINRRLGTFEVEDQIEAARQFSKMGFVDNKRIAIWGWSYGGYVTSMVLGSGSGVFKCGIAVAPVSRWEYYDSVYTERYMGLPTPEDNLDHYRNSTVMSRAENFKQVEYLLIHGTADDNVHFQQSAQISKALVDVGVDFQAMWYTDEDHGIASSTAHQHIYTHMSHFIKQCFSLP

## N#C[C@@H]1C[C@H](F)CN1C(=O)[C@@H](N)C1CC2CCC(C1)N2C(=O)c1cc(F)ccc1F (stereo partly drawn) [Compound 17, (2S,4S)-1-{(2S)-2-Amino-2-[8-(2,5-difluorobenzoyl)-8-aza-bicyclo[3.2.1]oct-3-yl]-exo-ethanoyl}-4-fluoro-pyrrolidin-2-carbonitrile trifluoroacetic acid salt]
  IC50: 2.4 nM

## N[C@H](C(=O)N1[C@H](C(=O)O)C[C@@H]2C[C@@H]21)C1CC2CCC(C1)N2C(=O)c1ccc2c(c1)OCO2 (stereo partly drawn) [Compound 46, (1S,3S,5S)-2-{(2S)-2-Amino-2-[8-(benzo[1,3]-dioxole-5-carbonyl)-8-aza-bicyclo[3.2.1]-oct-3-yl]-exo-ethanoyl}-2-azabicyclo[3.1.0]hexane-3-carboxylic acid hydrochloride]
[1]
  inhibition at 1 µM: 13%

## C#C[C@H]1CC[C@@H](C#N)N1C(=O)[C@@H](N)C1CC2CCC(C1)N2C(=O)c1ccncc1F (stereo partly drawn) [Compound 65, (2S,5R)-1-{(2S)-2-Amino-2-[8-(3-fluoropyridin-4-carbonyl)-8-aza-bicyclo[3.2.1]oct-3-yl]-exo-ethanoyl}-5-ethynyl-pyrrolidin-2-carbonitrile trifluoroacetic acid salt]
  IC50: 7.1 nM

## N#C[C@H]1C[C@H]2C[C@H]2N1C(=O)[C@H](N)C1CC2CCC(C1)N2C(=O)c1ccnc(F)c1.O=C(O)C(F)(F)F (stereo partly drawn) [Compound 30, (1R,3R,5R)-2-{(2R)-2-Amino-2-[8-(2-fluoropyridine-4-carbonyl)-8-aza-bicyclo[3.2.1]oct-3-yl]-exo-ethanoyl}-2-azabicyclo[3.1.0]hexane-3-carbonitrile trifluoroacetic acid salt]
Relative to vehicle controls
  % inhibition at 10 nM: 0% inhibition at 10 nM

## N#C[C@@H]1CCCN1C(=O)[C@@H](N)C1CC2CCC(C1)N2C(=O)c1ccncc1 (stereo partly drawn) [Compound 4, (2S)-1-{(2S)-2-Amino-2-[8-(pyridine-4-carbonyl)-8-aza-bicyclo[3.2.1]oct-3-yl]-exo-ethanoyl}-pyrrolidin-2-carbonitrile trifluoroacetic acid salt]
  IC50: 1.03 nM

## N#C[C@@H]1C[C@@H]2C[C@@H]2N1C(=O)[C@@H](N)C1CC2CCC(C1)N2C(=O)C12CC3CC(CC(C3)C1)C2.O=C(O)C(F)(F)F (stereo partly drawn) [Compound 43, (1S,3S,5S)-2-{(2S)-2-Amino-2-[8-(adamantane-1-carbonyl)-8-aza-bicyclo[3.2.1]oct-3-yl]-exo-ethanoyl}-2-azabicyclo[3.1.0]hexane-3-carbonitrile trifluoroacetic acid salt]
Relative to vehicle controls
  % inhibition at 100 nM: 49% inhibition at 100 nM

## N#C[C@@H]1C[C@H](F)CN1C(=O)[C@@H](N)C1CC2CCC(C1)N2C(=O)c1cc(F)c(F)cc1F (stereo partly drawn) [Compound 16, (2S,4S)-1-{(2S)-2-Amino-2-[8-(2,4,5-trifluorobenzoyl)-8-aza-bicyclo[3.2.1]oct-3-yl]-exo-ethanoyl}-4-fluoro-pyrrolidin-2-carbonitrile trifluoroacetic acid salt]
  IC50: 2.9 nM

## N#Cc1ccc(C(=O)N2C3CCC2CC([C@H](N)C(=O)N2CCC[C@H]2C#N)C3)cc1 (stereo partly drawn) [Compound 5, (2S)-1-{(2S)-2-Amino-2-[8-(4-cyano-benzoyl)-8-aza-bicyclo[3.2.1]oct-3-yl]-exo-ethanoyl}-pyrrolidin-2-carbonitrile trifluoroacetic acid salt]
  IC50: 1.52 nM

## N#C[C@@H]1C[C@@H]2C[C@@H]2N1C(=O)[C@@H](N)C1CC2CCC(C1)N2CC12CC3CC(CC(C3)C1)C2.O=C(O)C(F)(F)F (stereo partly drawn) [Compound 49, (1S,3S,5S)-2-{(2S)-2-Amino-2-[8-(adamantan-1-ylmethyl)-8-aza-bicyclo[3.2.1]oct-3-yl]-exo-ethanoyl}-2-azabicyclo[3.1.0]hexane-3-carbonitrile trifluoroacetic acid salt]
Relative to vehicle controls
  % inhibition at 100 nM: 60% inhibition at 100 nM

## CS(=O)(=O)c1ccc(N2C3CCC2CC([C@H](N)C(=O)N2[C@H](C#N)C[C@@H]4C[C@@H]42)C3)cc1 (stereo partly drawn) [Compound 53, (1S,3S,5S)-2-{(2S)-2-Amino-2-[8-(4-methanesulfonylphenyl)-8-aza-bicyclo[3.2.1]oct-3-yl]-exo-ethanoyl}-2-azabicyclo[3.1.0]hexane-3-carbonitrile trifluoroacetic acid salt]
  IC50: 19.7 nM

## N#C[C@@H]1CCCN1C(=O)[C@@H](N)C1CC2CCC(C1)N2C(=O)c1cc(F)ccc1F (stereo partly drawn) [Compound 6, (2S)-1-{(2S)-2-Amino-2-[8-(2,5-difluorobenzoyl)-8-aza-bicyclo[3.2.1]oct-3-yl]-exo-ethanoyl}-pyrrolidin-2-carbonitrile trifluoroacetic acid salt]
  IC50: 2.3 nM

## C#C[C@H]1CC[C@@H](C#N)N1C(=O)[C@@H](N)C1CC2CCC(C1)N2C(=O)c1ccc(C(F)(F)F)cc1 (stereo partly drawn) [Compound 63, (2S,5R)-1-{(2S)-2-Amino-2-[8-(4-trifluoromethyl-benzoyl)-8-aza-bicyclo[3.2.1]oct-3-yl]-exo-ethanoyl}-5-ethynyl-pyrrolidin-2-carbonitrile trifluoro acetic acid salt]
  IC50: 15.5 nM

## N[C@H](C(=O)N1CCC[C@H]1C(=O)O)C1CC2CCC(C1)N2C(=O)c1ccc(C(F)(F)F)cc1 (stereo partly drawn) [Compound 11, (2S)-1-{(2S)-2-amino-2-[8-(4-trifluoromethyl-benzoyl)-8-aza-bicyclo[3.2.1]-oct-3-yl]-exo-ethanoyl}-pyrrolidin-2-carboxylic acid trifluoroacetic acid salt]
  inhibition at 1 µM: 29%

## N#Cc1ccc(C(=O)N2C3CCC2CC([C@H](N)C(=O)N2[C@H](C#N)C[C@@H]4C[C@@H]42)C3)cc1 (stereo partly drawn) [Compound 24, (1S,3S,5S)-2-{(2S)-2-Amino-2-[8-(4-cyanobenzoyl)-8-aza-bicyclo[3.2.1]oct-3-yl]-exo-ethanoyl}-2-azabicyclo[3.1.0]hexane-3-carbonitrile trifluoroacetic acid salt]
  IC50: 3.52 nM

## CS(=O)(=O)N1C2CCC1CC([C@H](N)C(=O)N1[C@H](C#N)C[C@@H]3C[C@@H]31)C2 (stereo partly drawn) [Compound 56, (1S,3S,5S)-2-{(2S)-2-Amino-2-[8-(methanesulfonyl)-8-aza-bicyclo[3.2.1]oct-3-yl]-exo-ethanoyl}-2-azabicyclo[3.1.0]hexane-3-carbonitrile trifluoroacetic acid salt]
  IC50: 4.14 nM

## N#C[C@@H]1C[C@@H]2C[C@@H]2N1C(=O)[C@@H](N)C1CC2CCC(C1)N2C1CCCCC1.O=C(O)C(F)(F)F (stereo partly drawn) [Compound 60, (1S,3S,5S)-2-{(2S)-2-Amino-2-(8-cyclohexyl-8-aza-bicyclo[3.2.1]oct-3-yl)-exo-ethanoyl}-2-azabicyclo[3.1.0]hexane-3-carbonitrile trifluoroacetic acid salt]
Relative to vehicle controls
  % inhibition at 10 nM: 10% inhibition at 10 nM

## NC(=O)[C@@H]1CCCN1C(=O)[C@@H](N)C1CC2CCC(C1)N2C(=O)c1ccc(C(F)(F)F)cc1.O=C(O)C(F)(F)F (stereo partly drawn) [Compound 12, (2S)-1-{(2S)-2-amino-2-[8-(4-trifluoromethyl-benzoyl)-8-aza-bicyclo[3.2.1]-oct-3-yl]-exo-ethanoyl}-pyrrolidin-2-carboxamide trifluoroacetic acid salt]
[1]
  % inhibition at 1000 nM: 30% inhibition at 1000 nM

## N[C@H](C(=O)N1CCC[C@H]1CO)C1CC2CCC(C1)N2C(=O)c1ccc2c(c1)OCO2.O=C(O)C(F)(F)F (stereo partly drawn) [Compound 14, (2S)-{(2S)-1-[(2S)-2-Amino-2-(8-(benzo[1,3]dioxole-5-carbonyl)-8-aza-bicyclo[3.2.1]-oct-3-yl)-exo-acetyl]-pyrrolidin-2-yl}methanol trifluoroacetic acid salt]
Relative to vehicle controls
  % inhibition at 10 nM: 12% inhibition at 10 nM

## N#C[C@@H]1CCCN1C(=O)[C@@H](N)C1CC2CCC(C1)N2 (stereo partly drawn) [Compound 8, (2S)-1-{(2S)-2-Amino-2-[8-aza-bicyclo[3.2.1]oct-3-yl]-exo-ethanoyl}-pyrrolidin-2-carbonitrile trifluoro acetic acid salt]
  IC50: 6.84 nM

## N#C[C@@H]1C[C@@H]2C[C@@H]2N1C(=O)[C@@H](N)C1CC2CCC(C1)N2C(=O)c1ccccn1 (stereo partly drawn) [Compound 39, (1S,3S,5S)-2-{(2S)-2-Amino-2-[8-(pyridine-2-carbonyl)-8-aza-bicyclo[3.2.1]oct-3-yl]-exo-ethanoyl}-2-azabicyclo[3.1.0]hexane-3-carbonitrile trifluoroacetic acid salt]
  IC50: 11.7 nM

## N#C[C@@H]1C[C@@H]2C[C@@H]2N1C(=O)[C@@H](N)C1CC2CCC(C1)N2C(=O)c1ccncc1F (stereo partly drawn) [Compound 41, (1S,3S,5S)-2-{(2S)-2-Amino-2-[8-(3-fluoropyridine-4-carbonyl)-8-aza-bicyclo[3.2.1]oct-3-yl]-exo-ethanoyl}-2-azabicyclo[3.1.0]hexane-3-carbonitrile trifluoroacetic acid salt]
  IC50: 4.92 nM
